These results are taken from article PMC12416277, “Phytochemical alkaloids orchestrate immunometabolism against viral infections” (National Science Review, 2025).

Test [1] deals with A549 cells. Kind of test: Transcriptome analysis (RNA-seq, GO, GSEA) of compound-treated A549 cells.
Test [2] deals with HSV-1. Put plainly: microbe, parasite or virus in culture. The conditions noted are these: Human alphaherpesvirus 1, L929. The format is cell-based, herpes simplex virus 1 (HSV-1).
The test system of test [3] is H1N1. Kind of test: Dose-response of infectivity, H1N1 in L929 cells. The note with it: Influenza A virus. The format is cell-based.
The test system of test [4] is VSV. In kind it is cell-based, vesicular stomatitis virus (VSV).
For test [5], the system named is EMCV. Put plainly: microbe, parasite or virus in culture. In kind it is cell-based, encephalomyocarditis virus (EMCV). The note with it: Cardiovirus A, L929.
Test [6] deals with H1N1. Put plainly: Dose-response of infectivity, H1N1 in A549 cells (viral mRNA by qRT-PCR). In kind it is cell-based. The note with it: Influenza A virus, H1N1, A549. (In general: Real-time PCR tracks product formation cycle by cycle.)
For test [7], the system named is EMCV. Put plainly: microbe, parasite or virus in culture. The note with it: Cardiovirus A, A549. In kind it is cell-based, encephalomyocarditis virus (EMCV).
The subject of test [8] is HSV-1. Put plainly: microbe, parasite or virus in culture. The conditions noted are these: Human alphaherpesvirus 1, A549. In kind it is cell-based, herpes simplex virus 1 (HSV-1).
Test [9] relates to VSV. The format is in vivo, C57/BL6J mice. The note with it: mice, VSV infection.
Test [10] has as its system H1N1. Put plainly: Antiviral effect in normal/serum-free medium during H1N1 infection of A549 cells. In kind it is cell-based, influenza virus A (H1N1). The note with it: serum-free conditions.
In test [11] the test system is H1N1. Kind of test: H1N1 mRNA in A549 cells pretreated with NPC1 inhibitors. In kind it is cell-based, influenza virus A (H1N1). The note with it: A549 cells pretreated before infection.
In test [12] the test system is VSV. The format is cell-based, vesicular stomatitis virus (VSV). The note with it: A549 cells pretreated before infection.
Test [13] deals with VSV. The format is cell-based, vesicular stomatitis virus (VSV). The source holds these as a separate data set.
In test [14] the target is T1, NPC1 (Homo sapiens, UniProt O15118).
T1 sequence (O15118 23-1278): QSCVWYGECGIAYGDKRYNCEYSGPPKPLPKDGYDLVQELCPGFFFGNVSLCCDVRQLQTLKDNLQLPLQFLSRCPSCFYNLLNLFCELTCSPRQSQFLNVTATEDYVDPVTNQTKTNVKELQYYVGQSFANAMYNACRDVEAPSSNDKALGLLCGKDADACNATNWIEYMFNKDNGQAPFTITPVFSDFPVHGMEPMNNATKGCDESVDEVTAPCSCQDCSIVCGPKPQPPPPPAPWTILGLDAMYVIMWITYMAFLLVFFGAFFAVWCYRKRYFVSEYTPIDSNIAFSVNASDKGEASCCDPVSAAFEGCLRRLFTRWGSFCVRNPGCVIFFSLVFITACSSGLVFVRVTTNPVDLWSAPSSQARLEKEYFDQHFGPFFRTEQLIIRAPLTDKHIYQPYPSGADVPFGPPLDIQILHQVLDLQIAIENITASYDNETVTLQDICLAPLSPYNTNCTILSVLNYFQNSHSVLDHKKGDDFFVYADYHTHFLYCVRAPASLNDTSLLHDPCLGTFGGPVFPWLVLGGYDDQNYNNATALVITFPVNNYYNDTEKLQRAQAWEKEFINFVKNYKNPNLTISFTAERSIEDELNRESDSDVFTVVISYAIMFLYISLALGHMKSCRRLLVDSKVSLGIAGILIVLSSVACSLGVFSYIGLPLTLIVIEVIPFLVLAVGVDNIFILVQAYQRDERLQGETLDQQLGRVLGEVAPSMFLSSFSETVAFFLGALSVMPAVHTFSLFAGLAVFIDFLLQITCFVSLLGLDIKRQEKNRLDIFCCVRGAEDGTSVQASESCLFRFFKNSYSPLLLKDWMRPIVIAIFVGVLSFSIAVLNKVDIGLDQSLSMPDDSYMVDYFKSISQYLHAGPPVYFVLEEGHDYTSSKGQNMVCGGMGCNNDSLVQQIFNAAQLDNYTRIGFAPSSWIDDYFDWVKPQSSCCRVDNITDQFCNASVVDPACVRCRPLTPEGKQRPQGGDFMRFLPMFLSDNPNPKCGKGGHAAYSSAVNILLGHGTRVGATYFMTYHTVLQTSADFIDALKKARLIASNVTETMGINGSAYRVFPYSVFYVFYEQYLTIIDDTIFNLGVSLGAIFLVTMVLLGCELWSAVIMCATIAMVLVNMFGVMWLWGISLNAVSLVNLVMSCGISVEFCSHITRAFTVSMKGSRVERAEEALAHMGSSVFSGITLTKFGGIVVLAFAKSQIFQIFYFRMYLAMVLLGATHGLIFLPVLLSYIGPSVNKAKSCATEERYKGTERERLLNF
In kind it is binding. The conditions noted are these: […]; read-out: SPR KD.

Where two headings read alike, the source gives them in different places.

For orientation: EC50 means the concentration needed to bring the measured effect to its halfway point. Lower therefore signals greater potency. For the compound `COc1cc2c3cc1Oc1c(OC)c(OC)cc4c1[C@@H](Cc1ccc(O)c(c1)Oc1ccc(cc1)C[C@@H]3N(C)CC2)N(C)CC4` [Bbm, berbamine], the “GSEA NES, Response to virus” value in [1] (A549 cells, 10 µM, 24 h) is given as 1.34. For the same compound, the “GSEA NES, Sterol metabolic process” value in [1] (A549 cells, 10 µM, 24 h) is on record as 2.29. Further, the concentration giving a half-maximal response (EC50) was 360 nM in [2]; 2650 nM in [3]; 1500 nM in test [5]; 606 nM in [6]; 107 nM in test [7]; 3270 nM in test [8]. The “VSV replication (VSV-G protein, immunoblotting)” value in test [4] is recorded as “inhibited”.

As for `COc1ccc2cc1Oc1ccc(cc1)C[C@H]1c3c(cc4c(c3Oc3cc5c(cc3OC)CCN(C)[C@@H]5C2)OCO4)CCN1C` [Cep, cepharanthine], the “GSEA NES, Innate immune response” value in [1] (A549 cells, 10 µM, 24 h) was 1.25. For the same compound, in test [1] (A549 cells, 10 µM, 24 h), the “GSEA NES, Sterol metabolic process” value is 2.19. Besides, the EC50 was 569 nM in test [2]; 3840 nM in test [3]; 998 nM in [5]; 110 nM in test [6]; 2090 nM in test [7]; 3160 nM in test [8]. The “VSV replication (VSV-G protein, immunoblotting)” value in test [4] is “inhibited”.

For the compound `Cc1ccc2c(=O)c3cccc(CC(=O)O)c3oc2c1C` [DMXAA], in test [9], the “IL-6 level in serum” value was “markedly decreased” and the “TNF-α level in serum” value is given as “markedly decreased”.

As to `COc1ccc2cc1Oc1ccc(cc1)C[C@H]1c3cc(c(OC)cc3CCN1C)Oc1c(O)c(OC)cc3c1[C@H](C2)N(C)CC3` [Fan, fangchinoline], the “GSEA NES, Response to type I interferon” value in test [1] (A549 cells, 10 µM, 24 h) came out at 2.27. Also, the “GSEA NES, Sterol metabolic process” value in test [1] (A549 cells, 10 µM, 24 h) is reported as 2.04. In [1] (WT A549 cells, compared among Tet, Fan, Cep, Bbm), the “expression of antiviral immune-related genes” value is “higher expression”. The 50% effective concentration (EC50) in test [2] amounted to 2320 nM; in test [3], 537 nM; in [5] it was 1360 nM; in [6] it was 794 nM; in test [7], 821 nM; in test [8], 2550 nM. The “VSV replication (VSV-G protein, immunoblotting)” value in test [4] is listed as “inhibited”.

On to `CCN(CC)CCO[C@H]1CC[C@@]2(C)C(=CC[C@@H]3[C@@H]2CC[C@]2(C)C(=O)CC[C@@H]32)C1` [U18666A], for which the “antiviral effect on H1N1 entry” value in [10] is reported as “diminished”. For the same compound, in test [11], the H1N1 replication entry is recorded as “effectively blocked”. For the same compound, the VSV replication result in test [12] is on record as “effectively blocked”. Besides, the figures for the “antiviral effect on VSV entry” value in test [13] (MβCD pretreatment (cholesterol depleted)) and in test [13] (cholesterol supplementation using MβCD-cholesterol) were “abolished” and “restored inhibition”, respectively.

Take `CN(C)CCCN1c2ccccc2CCc2ccccc21` [imipramine]: the H1N1 replication result in test [11] was “effectively blocked”. In addition, the VSV replication entry in test [12] is given as “effectively blocked”.

One may read the Kd as the concentration at which binding is half-saturated. For the compound `CCC(C)n1ncn(-c2ccc(N3CCN(c4ccc(OCC5COC(Cn6cncn6)(c6ccc(Cl)cc6Cl)O5)cc4)CC3)cc2)c1=O` (stereo not drawn) [itraconazole], the H1N1 replication entry in test [11] is “effectively blocked”. Further, the VSV replication result in test [12] was “effectively blocked”. In addition, the dissociation constant Kd in [14] amounted to 8760 nM.

Consider `CC[C@@H]([C@H](C)O)n1ncn(-c2ccc(N3CCN(c4ccc(OC[C@@H]5CO[C@@](Cn6cncn6)(c6ccc(F)cc6F)C5)cc4)CC3)cc2)c1=O` [posaconazole], for which, in test [11], the H1N1 replication result was “effectively blocked”. In addition, in test [12], the VSV replication result is reported as “effectively blocked”.
